Reference: ChEMBL document CHEMBL4706626, “Triterpenoid-Mediated Inhibition of Virus-Host Interaction: Is Now the Time for Discovering Viral Entry/Release Inhibitors from Nature?” (J Med Chem, 2020)

Key:
[1] = system: Human immunodeficiency virus 1; test: Anti-HIV-1 activity against HIV1 NL4-3 infected in human HeLa expressing CD4/CCR5/beta-gal assessed as inhibition of syncytium formation incubated for 2 days by MAGI assay; type: functional, organism-based; conditions: Human immunodeficiency virus 1, NL4-3, HeLa, 48 h
[2] = system: HEK293T; test: Inhibition of Ebola virus pseudoparticle GP HR2 domain-mediated viral entry into human 293T cells at 1 uM incubated for 72 hrs by Bright-Glo reagent based assay relative to control; type: cell-based; conditions: Ebolavirus
[3] = system: Hepatitis C virus; test: Antiviral activity against HCV pseudoparticle infected in Huh-7 cells assessed as inhibition of viral entry pretreated for 30 mins with cells followed by viral infection for 4 hrs and subsequent compound wash out and measured after 72 hrs by Bright-Glo reagent based luciferase assay; type: functional, organism-based, Hepacivirus hominis
[4] = molecular target: Albumin (Homo sapiens, UniProt P02768); test: Protein binding in human serum albumin; type: ADME; conditions: read-out: PB
Albumin, sequence (P02768 whole entry): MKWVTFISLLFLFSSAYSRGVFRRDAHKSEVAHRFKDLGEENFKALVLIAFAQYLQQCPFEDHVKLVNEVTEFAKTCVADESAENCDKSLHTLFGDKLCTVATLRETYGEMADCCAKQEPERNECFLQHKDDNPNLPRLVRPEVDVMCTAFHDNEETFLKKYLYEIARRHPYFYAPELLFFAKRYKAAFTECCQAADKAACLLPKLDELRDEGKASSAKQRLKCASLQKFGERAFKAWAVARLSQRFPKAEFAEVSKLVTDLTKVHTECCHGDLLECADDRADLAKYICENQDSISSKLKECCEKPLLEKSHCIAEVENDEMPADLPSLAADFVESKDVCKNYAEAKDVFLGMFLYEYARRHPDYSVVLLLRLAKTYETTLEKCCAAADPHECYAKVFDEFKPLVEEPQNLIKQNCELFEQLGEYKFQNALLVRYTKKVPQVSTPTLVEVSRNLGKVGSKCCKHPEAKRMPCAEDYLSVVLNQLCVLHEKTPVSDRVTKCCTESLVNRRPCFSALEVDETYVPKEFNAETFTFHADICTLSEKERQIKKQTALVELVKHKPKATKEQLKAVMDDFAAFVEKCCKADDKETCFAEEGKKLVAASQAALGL

[5] = Aqueous solubility of compound; type: physicochemical
[6] = system: Human coronavirus 229E; test: Antiviral activity against HCoV-229E infected in human MRC5 cells incubated for 2 hrs by XTT method; type: functional, organism-based; conditions: MRC5, 2 h
[7] = Selectivity index, ratio of CC50 for human MRC5 cells to EC50 for HCoV-229E infected in human MRC5 cells; type: toxicity, cell-based; conditions: MRC5 cells (CC50) and HCoV-229E-infected MRC5 cells (EC50)
[8] = system: Human immunodeficiency virus 1; test: Anti-HIV-1 activity against HIV1 IIIB/LAI infected in human CEM 4 cells assessed as reduction in virus-indued cytopathic effect treated for 1 hr with cells followed by viral infection and measured after 5 days; type: functional, organism-based; conditions: Human immunodeficiency virus 1, IIIB/LAI
[9] = system: Human immunodeficiency virus 1; test: Anti-HIV-1 activity against HIV1 IIIB infected in human H9 cells assessed as in p24 antigen production by sandwich ELISA; type: functional, organism-based; conditions: Human immunodeficiency virus 1, IIIB
[10] = Inhibition of Zaire Ebola virus pseudoparticle GP HR2 domain-mediated virus-host fusion in human 293T cells incubated for 72 hrs by Bright-Glo reagent based assay; type: cell-based, Zaire ebolavirus; conditions: hek293t
[11] = Inhibition of Zaire Ebola virus pseudoparticle GP HR2 domain-mediated virus-host fusion in human A549 cells incubated for 72 hrs by Bright-Glo reagent based assay; type: cell-based, Zaire ebolavirus
[12] = Binding affinity to EBOV envelope glycoprotein HR2 domain by surface plasmon resonance; set-up: species or system Ebolavirus
[13] = Antiviral activity against Ebola virus Makona infected in human foreskin fibroblast pretreated for 2 hrs followed by viral infection for 48 hrs by Alexa Fluor 488 staining based assay; type: functional, cell-based; conditions: Zaire ebolavirus
[14] = Antiviral activity against Ebola virus Makona infected in human HeLa cells pretreated for 2 hrs followed by viral infection for 48 hrs by Alexa Fluor 488 staining based assay; type: functional, cell-based; conditions: Zaire ebolavirus
[15] = Binding affinity to EBOV envelope glycoprotein HR2 domain assessed as reduction in HR1-HR2 interaction by measuring Kd for HR1-HR2 affinity by surface plasmon resonance (reference value: 1 uM); set-up: species or system Ebolavirus
[16] = system: Human immunodeficiency virus 1; test: Antiviral activity against HIV-1 harboring V307A mutant; type: functional, organism-based
[17] = system: Human immunodeficiency virus 1; test: Antiviral activity against HIV-1 NL4-3; type: functional, organism-based; conditions: Human immunodeficiency virus 1, NL4-3

`CC(C)C[C@H](NC(=O)CCCCCCCNC(=O)[C@]12CC[C@@H](C(C)C)[C@@H]1[C@H]1CC[C@@H]3[C@@]4(C)CC[C@H](O)C(C)(C)[C@@H]4CC[C@@]3(C)[C@]1(C)CC2)[C@H](O)CC(=O)O` showed an EC50 [1] of 330 nM.

`CC1(C)CC[C@]2(C(=O)O)CC[C@]3(C)C(=CC[C@@H]4[C@@]5(C)CC[C@H](O)C(C)(C)[C@@H]5CC[C@]43C)[C@@H]2C1` [OLEANOLIC_ACID] gave an inhibition [2] of 1% and an IC50 [3] of 10000 nM.

Compound `C=C(C)[C@@H]1CC[C@]2(C(=O)O)CC[C@]3(C)[C@H](CC[C@@H]4[C@@]5(C)CC[C@H](OC(=O)CC(C)(C)C(=O)O)C(C)(C)[C@@H]5CC[C@]43C)[C@@H]12` [BEVIRIMAT] has a fraction unbound [4] of under 0.01 and a solubility [5] of under 1 µg/mL.

`CC1(C)CC[C@]2(C(=O)N[C@@H]3O[C@H](CO)[C@H](O)[C@H](O)[C@H]3O)CC[C@]3(C)C(=CC[C@@H]4[C@@]5(C)CCC(=O)C(C)(C)[C@@H]5CC[C@]43C)[C@@H]2C1` showed an inhibition [2] of 7%.

`CC1(C)CC[C@]2(C(=O)N[C@@H]3O[C@H](CO)[C@H](O)[C@H](O)[C@H]3O)CC[C@]3(C)C(=CC[C@@H]4[C@@]5(C)CC[C@H](O)C(C)(C)[C@@H]5CC[C@]43C)[C@@H]2C1` showed an inhibition [2] of 16%.

In the case of `CC(=O)OC[C@H]1O[C@@H](NC(=O)[C@]23CCC(C)(C)C[C@H]2C2=CC[C@@H]4[C@@]5(C)CC[C@H](O)C(C)(C)[C@@H]5CC[C@@]4(C)[C@]2(C)C[C@H]3O)[C@H](OC(C)=O)[C@@H](OC(C)=O)[C@H]1OC(C)=O`, the inhibition [2] is reported as 22%.

In the case of `CC(=O)OC[C@H]1O[C@@H](NC(=O)[C@]23CCC(C)(C)C[C@H]2C2=CC[C@@H]4[C@@]5(C)CC[C@H](O)C(C)(C)[C@@H]5CC[C@@]4(C)[C@]2(C)CC3)[C@H](OC(C)=O)[C@@H](OC(C)=O)[C@H]1OC(C)=O`, the inhibition [2] is reported as 32%.

Work on `CC1(C)CC[C@]2(C(=O)N[C@@H]3O[C@H](CO)[C@@H](O)[C@H](O)[C@@H]3O)CC[C@]3(C)C(=CC[C@@H]4[C@@]5(C)CC[C@H](O)C(C)(C)[C@@H]5CC[C@]43C)[C@@H]2C1` yielded an inhibition [2] of -5%.

`CC1(C)CC[C@]2(C(=O)O)CC[C@]3(C)C(=CC[C@@H]4[C@@]5(C)CCC(=O)C(C)(C)[C@@H]5CC[C@]43C)[C@@H]2C1` showed an inhibition [2] of 25%.

`CC1(C)CC[C@]2(C(=O)O)[C@H](O)C[C@]3(C)C(=CC[C@@H]4[C@@]5(C)CC[C@H](O)C(C)(C)[C@@H]5CC[C@]43C)[C@@H]2C1` showed an inhibition [2] of 2%.

`C[C@H]1O[C@@](O)(O[C@H]2CC[C@@]3(C)[C@@H](CC[C@]4(C)[C@@H]3C=CC3=C5CC(C)(C)CC[C@]5(CO)[C@H](O)C[C@]34C)[C@]2(C)CO)[C@H](O)[C@@H](O[C@@H]2O[C@H](CO)[C@@H](O)[C@H](O)[C@H]2O)[C@H]1O` gave an IC50 [6] of 1700 nM and a selectivity ratio [7] of 222.

For `C=C(C)[C@@H]1CC[C@]2(C(=O)NCCCCCCCCCCC(=O)O)CC[C@]3(C)[C@H](CC[C@@H]4[C@@]5(C)CC[C@H](O)C(C)(C)[C@@H]5CC[C@]43C)[C@@H]12`, the IC50 [8] was 230 nM.

`C=C(C)[C@@H]1CC[C@]2(C(=O)NCCCCCCCC(=O)N[C@@H](CC(C)C)[C@H](O)CC(=O)O)CC[C@]3(C)[C@H](CC[C@@H]4[C@@]5(C)CC[C@H](O)C(C)(C)[C@@H]5CC[C@]43C)[C@@H]12` showed an EC50 [1] of 400 nM.

`C=C(C)[C@@H]1CC[C@]2(C(=O)NCCCCCCCC(=O)N[C@@H](CC(C)C)[C@@H](O)CC(=O)O)CC[C@]3(C)[C@H](CC[C@@H]4[C@@]5(C)CC[C@H](O)C(C)(C)[C@@H]5CC[C@]43C)[C@@H]12` gave an IC50 [9] of 30 nM.

In the case of `CC1(C)CC[C@]2(C(=O)N[C@@H]3O[C@H](CO)[C@@H](O)[C@H](O)[C@@H]3O)[C@H](O)C[C@]3(C)C(=CC[C@@H]4[C@@]5(C)CC[C@H](O)C(C)(C)[C@@H]5CC[C@]43C)[C@@H]2C1`, the inhibition [2] is reported as 3%.

`CC(=O)OC[C@H]1O[C@@H](NC(=O)[C@]23CCC(C)(C)C[C@H]2C2=CC[C@@H]4[C@@]5(C)CC[C@H](O)C(C)(C)[C@@H]5CC[C@@]4(C)[C@]2(C)CC3)[C@@H](OC(C)=O)[C@@H](OC(C)=O)[C@@H]1OC(C)=O` showed an inhibition [2] of -4%.

Work on `CC1(C)CCC2C(=O)C[C@]3(C)C(=CC[C@@H]4[C@@]5(C)CCC(=O)C(C)(C)[C@@H]5CC[C@]43C)[C@@H]2C1` (stereo partly drawn) yielded an IC50 [10] of 1350 nM, an inhibition [2] of 52% and an IC50 [11] of 1350 nM.

In the case of `C#CCN(CCCC1(C)N=N1)C(=O)[C@]12CCC(C)(C)C[C@H]1C1=CC[C@@H]3[C@@]4(C)CCC(=O)C(C)(C)[C@@H]4CC[C@@]3(C)[C@]1(C)CC2=O`, the Kd [12] is reported as 16800 nM.

`CC(=O)OC[C@H]1O[C@@H](NC(=O)[C@]23CCC(C)(C)C[C@H]2C2=CC[C@@H]4[C@@]5(C)CCC(=O)C(C)(C)[C@@H]5CC[C@@]4(C)[C@]2(C)CC3=O)[C@H](OC(C)=O)[C@@H](OC(C)=O)[C@H]1OC(C)=O` showed an IC50 [10] of 59.2 nM, an EC50 [13] of 990 nM and an EC50 [14] of 460 nM. For the same compound, the Kd [12] was 5400 nM, the Kd [15] was 23400 nM and the inhibition [2] was 99%. For the same compound, the IC50 [11] was 59.2 nM.

For `CC(=O)OC[C@H]1O[C@@H](NC(=O)[C@]23CCC(C)(C)C[C@H]2C2=CC[C@@H]4[C@@]5(C)CCC(=O)C(C)(C)[C@@H]5CC[C@@]4(C)[C@]2(C)CC3)[C@H](OC(C)=O)[C@@H](OC(C)=O)[C@H]1OC(C)=O`, the IC50 [10] was 467 nM, the inhibition [2] was 93% and the IC50 [11] was 467 nM.

Compound `CC(C)C1=C2[C@H]3CC[C@@H]4[C@@]5(C)CC[C@H](OC(=O)CC(C)(C)C(=O)O)C(C)(C)[C@@H]5CC[C@@]4(C)[C@]3(C)CC[C@@]2([C@@H](O)CN(CCN(C)C)Cc2ccc(Cl)cc2)CC1=O` [GSK2838232] has an IC50 [16] of 0.71 nM and an IC50 [17] of 0.81 nM.

Work on `CC1(C)CC[C@]2(C(=O)N[C@@H]3O[C@H](CO)[C@H](O)[C@H](O)[C@H]3O)C(=O)C[C@]3(C)C(=CC[C@@H]4[C@@]5(C)CCC(=O)C(C)(C)[C@@H]5CC[C@]43C)[C@@H]2C1` yielded an inhibition [2] of 6%.

For `CC(=O)OC[C@H]1O[C@@H](NC(=O)[C@]23CCC(C)(C)C[C@H]2C2=CC[C@@H]4[C@@]5(C)CC[C@H](O)C(C)(C)[C@@H]5CC[C@@]4(C)[C@]2(C)C[C@H]3O)[C@@H](OC(C)=O)[C@@H](OC(C)=O)[C@@H]1OC(C)=O`, the inhibition [2] was 17%.

Work on `CC1(C)CC[C@]2(C(=O)N[C@@H]3O[C@H](CO)[C@H](O)[C@H](O)[C@H]3O)[C@H](O)C[C@]3(C)C(=CC[C@@H]4[C@@]5(C)CC[C@H](O)C(C)(C)[C@@H]5CC[C@]43C)[C@@H]2C1` yielded an inhibition [2] of 16%.
